Source: patent publication US20250171423A1, “PHARMACEUTICAL COMPOUNDS FOR THE TREATMENT OF COMPLEMENT MEDIATED DISORDERS” (Achillion Pharmaceuticals, Inc., priority 2020, published 2025)

Target: T1, Human complement C1s enzyme (Homo sapiens, UniProt P09871)
T1 construct: purified from human serum, Complement Technology, Inc; purchased Complement Technology, Inc; host or cells: human serum
T1 sequence (P09871 438-688 limits assumed): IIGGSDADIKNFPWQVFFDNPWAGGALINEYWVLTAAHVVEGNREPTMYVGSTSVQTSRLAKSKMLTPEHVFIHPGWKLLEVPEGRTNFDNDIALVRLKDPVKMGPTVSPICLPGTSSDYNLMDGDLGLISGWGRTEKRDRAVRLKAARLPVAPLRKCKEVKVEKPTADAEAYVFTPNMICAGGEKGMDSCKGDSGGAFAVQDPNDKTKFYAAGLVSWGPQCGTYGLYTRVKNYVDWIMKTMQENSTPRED
T1 sequence (P09871 16-437 partner limits assumed): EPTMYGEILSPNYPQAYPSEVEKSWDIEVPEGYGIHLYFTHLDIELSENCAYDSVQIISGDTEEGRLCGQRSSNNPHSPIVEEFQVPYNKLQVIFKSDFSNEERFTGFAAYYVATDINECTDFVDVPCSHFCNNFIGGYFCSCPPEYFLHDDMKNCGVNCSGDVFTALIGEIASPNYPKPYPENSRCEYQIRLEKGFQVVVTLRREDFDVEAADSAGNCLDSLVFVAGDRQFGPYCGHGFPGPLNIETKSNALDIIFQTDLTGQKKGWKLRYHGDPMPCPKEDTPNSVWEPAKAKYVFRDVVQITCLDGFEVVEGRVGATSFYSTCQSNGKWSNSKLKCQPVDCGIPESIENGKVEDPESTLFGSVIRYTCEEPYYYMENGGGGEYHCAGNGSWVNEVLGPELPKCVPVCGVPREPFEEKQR
Assay: Human C1s Enzyme Assay
Format: biochemical
Settings: human C1s 1.16 nM, 5 min preincubation, substrate Z-L-Lys-SBzl 100 μM, A405; read-out: C1s Protease Activity
In short: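 C1s purified from human serum (1.16 nM final) was preincubated with compound for 5 min at room temperature in 50 mM Tris, 1 M NaCl, pH 7.5. Z-L-Lys-SBzl and DTNB were then added at 100 μM each, and A405 was followed for 30 min. IC50 came from nonlinear regression of reaction rates.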

Compound	IC50 [nM]
C[C@@H](NC(=O)[C@@H]1C[C@]2(C)C[C@@H]2N1C(=O)CNC(=O)[C@H](CCOc1ccccc1)NC(=O)CCC(=O)O)c1cc(C(=N)N)cs1 [Compound 184, 4-(((S)-1-((2-((1S,3S,5S)-3-(((R)-1-(4-carbamimidoylthiophen-2-yl)ethyl)carbamoyl)-5-methyl-2-azabicyclo[3.1.0]hexan-2-yl)-2-oxoethyl)amino)-1-oxo-4-phenoxybutan-2-yl)amino)-4-oxobutanoic acid]	< 100
CO[C@@H]1C[C@@H](C(=O)N[C@H](C)c2cc(C(=N)N)cs2)N(C(=O)CNC(=O)c2ccc(Oc3ccccc3)cc2)C1 [Compound 185, (2S,4R)-N-((R)-1-(4-carbamimidoylthiophen-2-yl)ethyl)-4-methoxy-1-((4-phenoxybenzoyl)glycyl)pyrrolidine-2-carboxamide]	< 100
C[C@@]12C[C@@H]1N(C(=O)CNC(=O)CCCOc1ccccc1C(=O)O)[C@H](C(=O)NCc1cc(C(=N)N)cs1)C2 [Compound 186, 2-(4-((2-((1S,3S,5S)-3-(((4-carbamimidoylthiophen-2-yl)methyl)carbamoyl)-5-methyl-2-azabicyclo[3.1.0]hexan-2-yl)-2-oxoethyl)amino)-4-oxobutoxy)benzoic acid]	< 100
C[C@@H](NC(=O)[C@@H]1C[C@](F)(CF)CN1C(=O)CNC(=O)c1ccc(Oc2ccccc2)cc1)c1cc(C(=N)N)cs1 [Compound 187, (2S,4R)-N-((R)-1-(4-carbamimidoylthiophen-2-yl)ethyl)-4-fluoro-4-(fluoromethyl)-1-((4-phenoxybenzoyl)glycyl)pyrrolidine-2-carboxamide]	< 100
COC(=O)C(NC(=O)[C@@H]1C[C@@H](OC(F)F)CN1C(=O)CNC(=O)c1ccc(Oc2ccccc2)cc1)c1cc(C(=N)N)cs1 (stereo partly drawn) [Compound 189, methyl 2-(4-carbamimidoylthiophen-2-yl)-2-((2S,4R)-4-(difluoromethoxy)-1-((4-phenoxybenzoyl)glycyl)pyrrolidine-2-carboxamido)acetate]	> 1000
N=C(N)c1csc(C(NC(=O)[C@@H]2C[C@@H](OC(F)F)CN2C(=O)CNC(=O)c2ccc(Oc3ccccc3)cc2)C(=O)O)c1 (stereo partly drawn) [Compound 190, 2-(4-carbamimidoylthiophen-2-yl)-2-((2S,4R)-4-(difluoromethoxy)-1-((4-phenoxybenzoyl)glycyl)pyrrolidine-2-carboxamido)acetic acid]	< 100
CC(C)C[C@@H](NC(=O)[C@@H]1C[C@@H](OC(F)F)CN1C(=O)CNC(=O)c1ccc(Oc2ccccc2)cc1)c1cc(C(=N)N)cs1 [Compound 191, (2S,4R)-N-((R)-1-(4-carbamimidoylthiophen-2-yl)-3-methylbutyl)-4-(difluoromethoxy)-1-((4-phenoxybenzoyl)glycyl)pyrrolidine-2-carboxamide]	> 1000
C[C@@H](NC(=O)[C@@H]1C[C@@H](S(C)(=O)=O)CN1C(=O)CNC(=O)c1ccc(Oc2ccccc2)cc1)c1cc(C(=N)N)cs1 [Compound 192, (2S,4R)-N-((R)-1-(4-carbamimidoylthiophen-2-yl)ethyl)-4-(methylsulfonyl)-1-((4-phenoxybenzoyl)glycyl)pyrrolidine-2-carboxamide]	< 100
N=C(N)c1csc([C@H](NC(=O)[C@@H]2C[C@@H](OC(F)F)CN2C(=O)CNC(=O)c2ccc(Oc3ccccc3)cc2)C2CCCC2)c1 [Compound 193, (2S,4R)-N-((R)-(4-carbamimidoylthiophen-2-yl)(cyclopentyl)methyl)-4-(difluoromethoxy)-1-((4-phenoxybenzoyl)glycyl)pyrrolidine-2-carboxamide]	> 1000
N=C(N)c1csc(CNC(=O)[C@@H]2C[C@@]3(CCO3)CN2C(=O)CNC(=O)c2ccc(Oc3ccccc3)cc2)c1 [Compound 194, (4R,7S)-N-((4-carbamimidoylthiophen-2-yl)methyl)-6-((4-phenoxybenzoyl)glycyl)-1-oxa-6-azaspiro[3.4]octane-7-carboxamide]	< 100
N=C(N)c1csc(CNC(=O)[C@@H]2C[C@]3(CCO3)CN2C(=O)CNC(=O)c2ccc(Oc3ccccc3)cc2)c1 [Compound 195, (4S,7S)-N-((4-carbamimidoylthiophen-2-yl)methyl)-6-((4-phenoxybenzoyl)glycyl)-1-oxa-6-azaspiro[3.4]octane-7-carboxamide]	< 100
COC[C@@]1(F)C[C@@H](C(=O)N[C@H](C)c2cc(C(=N)N)cs2)N(C(=O)CNC(=O)c2ccc(Oc3ccccc3)cc2)C1 [Compound 196, (2S,4R)-N-((R)-1-(4-carbamimidoylthiophen-2-yl)ethyl)-4-fluoro-4-(methoxymethyl)-1-((4-phenoxybenzoyl)glycyl)pyrrolidine-2-carboxamide]	< 100
N=C(N)c1csc([C@@H](CO)NC(=O)[C@@H]2C[C@@H](OC(F)F)CN2C(=O)CNC(=O)c2ccc(Oc3ccccc3)cc2)c1 [Compound 197, (2S,4R)-N-((R)-1-(4-carbamimidoylthiophen-2-yl)-2-hydroxyethyl)-4-(difluoromethoxy)-1-((4-phenoxybenzoyl)glycyl)pyrrolidine-2-carboxamide]	< 100
N=C(N)c1csc([C@H](CO)NC(=O)[C@@H]2C[C@@H](OC(F)F)CN2C(=O)CNC(=O)c2ccc(Oc3ccccc3)cc2)c1 [Compound 198, (2S,4R)-N-((S)-1-(4-carbamimidoylthiophen-2-yl)-2-hydroxyethyl)-4-(difluoromethoxy)-1-((4-phenoxybenzoyl)glycyl)pyrrolidine-2-carboxamide]	< 100
C[C@@H](NC(=O)[C@@H]1C[C@](F)(COCCCCCC(=O)O)CN1C(=O)CNC(=O)c1ccc(Oc2ccccc2)cc1)c1cc(C(=N)N)cs1 [Compound 199, 6-(((3R,5S)-5-(((R)-1-(4-carbamimidoylthiophen-2-yl)ethyl)carbamoyl)-3-fluoro-1-((4-phenoxybenzoyl)glycyl)pyrrolidin-3-yl)methoxy)hexanoic acid]	< 100
N=C(N)c1csc([C@H](NC(=O)[C@@H]2C[C@@H](OC(F)F)CN2C(=O)CNC(=O)c2ccc(Oc3ccccc3)cc2)c2ccccc2)c1 [Compound 200, (2S,4R)-N-((R)-(4-carbamimidoylthiophen-2-yl)(phenyl)methyl)-4-(difluoromethoxy)-1-((4-phenoxybenzoyl)glycyl)pyrrolidine-2-carboxamide]	> 1000
C[C@@]12C[C@@H]1N(C(=O)CNC(=O)c1ccc(Oc3ccccc3)cc1)[C@H](C(=O)NCc1nnc(C(=N)N)o1)C2 [Compound 201, (1S,3S,5S)-N-((5-carbamimidoyl-1,3,4-oxadiazol-2-yl)methyl)-5-methyl-2-((4-phenoxybenzoyl)glycyl)-2-azabicyclo[3.1.0]hexane-3-carboxamide]	> 1000
C[C@@H](NC(=O)[C@@H]1C[C@](F)(CF)CN1C(=O)CNC(=O)c1ccc(C(=O)c2ccccc2)cc1)c1cc(C(=N)N)cs1 [Compound 202, (2S,4R)-1-((4-benzoylbenzoyl)glycyl)-N-((R)-1-(4-carbamimidoylthiophen-2-yl)ethyl)-4-fluoro-4-(fluoromethyl)pyrrolidine-2-carboxamide]	< 100
C[C@@H](NC(=O)[C@@H]1C[C@@H](OC(F)F)CN1C(=O)CNC(=O)c1ccc(C(=O)c2ccccc2)cc1)c1cc(C(=N)N)cs1 [Compound 203, (2S,4R)-1-((4-benzoylbenzoyl)glycyl)-N-((R)-1-(4-carbamimidoylthiophen-2-yl)ethyl)-4-(difluoromethoxy)pyrrolidine-2-carboxamide]	< 100
Cc1sc(CNC(=O)[C@@H]2C[C@]3(C)C[C@@H]3N2C(=O)CNC(=O)c2ccc(Oc3ccccc3)cc2)cc1C(=N)N [Compound 204, (1S,3S,5S)-N-((4-carbamimidoyl-5-methylthiophen-2-yl)methyl)-5-methyl-2-((4-phenoxybenzoyl)glycyl)-2-azabicyclo[3.1.0]hexane-3-carboxamide]	> 1000
C[C@@]12C[C@@H]1N(C(=O)CNC(=O)c1ccc(Oc3ccccc3)cc1)[C@H](C(=O)NCc1cc(/C(N)=N/S(N)(=O)=O)cs1)C2 [Compound 205, (1S,3S,5S)-5-methyl-2-((4-phenoxybenzoyl)glycyl)-N-((4-(N-sulfamoylcarbamimidoyl)thiophen-2-yl)methyl)-2-azabicyclo[3.1.0]hexane-3-carboxamide]	> 1000
N=C(N)c1csc(CNC(=O)[C@@H]2CC3(CN2C(=O)CNC(=O)CCCOc2ccnc(F)c2)OCCO3)c1 [Compound 206, (S)-N-((4-carbamimidoylthiophen-2-yl)methyl)-7-((4-((2-fluoropyridin-4-yl)oxy)butanoyl)glycyl)-1,4-dioxa-7-azaspiro[4.4]nonane-8-carboxamide]	< 100
C[C@@]12C[C@@H]1N(C(=O)CNC(=O)CCCOc1cccc3ccccc13)[C@H](C(=O)NCc1cc(C(=N)N)cs1)C2 [Compound 207, (1S,3S,5S)-N-((4-carbamimidoylthiophen-2-yl)methyl)-5-methyl-2-((4-(naphthalen-1-yloxy)butanoyl)glycyl)-2-azabicyclo[3.1.0]hexane-3-carboxamide]	< 100
